In series [1] the target is T1, porcine kidney aminopeptidase N (APN) (Sus scrofa, UniProt P15145).
T1 construct: purchased Enzo Life Sciences; host or cells: porcine kidney microsomes (tissue-derived)
T1 sequence (P15145 1-963): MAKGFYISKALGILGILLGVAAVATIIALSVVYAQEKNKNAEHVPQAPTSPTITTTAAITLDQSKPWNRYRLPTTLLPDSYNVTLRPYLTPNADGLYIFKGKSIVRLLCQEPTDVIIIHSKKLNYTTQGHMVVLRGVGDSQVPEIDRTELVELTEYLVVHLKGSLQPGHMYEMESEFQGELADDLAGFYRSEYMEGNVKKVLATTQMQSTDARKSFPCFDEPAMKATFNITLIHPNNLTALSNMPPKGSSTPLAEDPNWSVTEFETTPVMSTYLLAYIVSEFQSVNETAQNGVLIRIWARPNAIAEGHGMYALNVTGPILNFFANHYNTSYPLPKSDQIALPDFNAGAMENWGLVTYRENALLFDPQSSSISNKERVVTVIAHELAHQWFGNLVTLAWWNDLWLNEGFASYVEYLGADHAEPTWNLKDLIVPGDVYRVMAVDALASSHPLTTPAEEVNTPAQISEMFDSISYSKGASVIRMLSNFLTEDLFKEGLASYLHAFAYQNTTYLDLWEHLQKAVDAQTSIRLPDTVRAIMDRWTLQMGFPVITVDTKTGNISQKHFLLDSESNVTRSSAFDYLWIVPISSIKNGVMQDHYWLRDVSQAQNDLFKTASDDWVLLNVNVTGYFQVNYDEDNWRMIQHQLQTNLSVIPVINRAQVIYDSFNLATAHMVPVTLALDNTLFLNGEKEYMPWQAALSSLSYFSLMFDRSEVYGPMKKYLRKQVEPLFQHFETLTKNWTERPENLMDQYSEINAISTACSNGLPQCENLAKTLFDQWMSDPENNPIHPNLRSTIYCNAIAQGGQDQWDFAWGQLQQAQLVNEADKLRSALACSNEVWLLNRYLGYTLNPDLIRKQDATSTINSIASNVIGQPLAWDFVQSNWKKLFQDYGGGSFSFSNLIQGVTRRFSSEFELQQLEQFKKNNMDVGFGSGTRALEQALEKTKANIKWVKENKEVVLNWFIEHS
As to the kind of experiment: Enzymatic inhibition assay against APN in vitro (L-Leu-p-nitroanilide substrate). It is filed as biochemical. To be noted: for IC50: soluble APN from porcine kidney microsomal, 37 °C, 30 min, triplicate, mean ± SD. The procedure: The enzymatic inhibitory activities of target compounds were evaluated using L-Leu-p-nitroanilide (Sigma-Aldrich, St. Louis, MO, USA) as substrate and soluble APN from porcine kidney microsomal (Enzo Life Sciences, Farmingdale, NY, USA) as enzyme. Firstly, the substrate was dissolved in DMSO to a concentration of 16 mmol/L and the enzyme was dissolved in buffer solution of 50 mM PBS (pH = 7.2) for a concentration of 0.15 IU/L. Subsequently, inhibitors (40 μL) and PBS (145 μL) were added into the 96-well plates, followed by the addition of substrate (5 μL) and enzyme (10 μL). After incubation at 37 °C for 30 min, the absorbance values were measured at 405 nm with a plate reader (Varioskan, Thermo Fisher Scientific, Waltham, MA, USA).

A further series deals with U937 cells. In words: Anti-proliferative assay (MTT), U937. It counts as cell-based. To be noted: Homo sapiens, U-937, 48 h, triplicate, mean ± SD. On the procedure: (§1) The MTT method was used for the determination of anti-proliferative activities of selected compounds against tumor cells. Human histiocytic lymphoma cells U937, human chronic myeloid leukemia cells K562, liver carcinoma alexander cells PLC/PRF/5, human prostate cancer cells PC-3, human ovarian clear cell carcinoma cells ES-2, human hepatocellular carcinoma cells HepG2 were selected as tested tumor cell lines. Firstly, the cells were cultured in RPMI 1640 medium with 10% FBS at 37 °C in 5% CO2 humidified incubator. Cells (100 μL) in logarithmic phase were inoculated in 96-well plates and allowed to grow for 4 h. Subsequently, inhibitors (100 μL) at the tested concentration were added, followed by incubation for 48 h. Then, to the mixture was added MTT solution (20 μL, 5 mg/mL) and further incubated for 4 h. The plates were centrifuged at 800 rpm for 3 min. The supernatant was poured off and the formed formazan was dissolved in DMSO (200 μL). Finally, the mixture was shaken for 15 min and the absorbance values of the formazan solution were measured at 570 nm with a plate reader (Varioskan, Thermo, Waltham, MA, USA). All the tumor cells were owned by our laboratory.

A further series concerns K562 cells. In words: Anti-proliferative assay (MTT), K562. It is filed as cell-based. To be noted: Homo sapiens, 48 h, triplicate, mean ± SD. The procedure: as §1
The subject of the next series is PLC/PRF/5 cells. As to the kind of experiment: Anti-proliferative assay (MTT), PLC/PRF/5. It is filed as cell-based. To be noted: Homo sapiens, 48 h, triplicate, mean ± SD. On the procedure: as §1
The subject of a further series is PC-3 cells. As to the kind of experiment: Anti-proliferative assay (MTT), PC-3. It is filed as cell-based. To be noted: Homo sapiens, 48 h, triplicate, mean ± SD. The procedure:
as §1

Another series concerns ES-2 cells. As to the kind of experiment: Anti-proliferative assay (MTT), ES-2. It counts as cell-based. To be noted: Homo sapiens, 48 h, triplicate, mean ± SD. On the procedure:
as §1

Another series has as its system HepG2 cells. In words: Anti-proliferative assay (MTT), HepG2. It counts as cell-based. To be noted: Homo sapiens, 48 h, triplicate, mean ± SD. On the procedure: as §1
The next series has as its system rat thoracic aorta rings. In words: Rat aortic ring assay (ex vivo anti-angiogenesis). It is filed as cell-based, Sprague Dawley rats. The procedure: The thoracic aortas were separated from 8- to 10-week-old male Sprague Dawley rats and cut into rings with a 1-mm-long cross-section after removal of the connective tissues around the aortas. The fresh aortic ring was added into the 96-well plates pre-coated with matrigel (50 μL, BD bioscience), and covered with another 50 μL of matrigel. After incubation at 37 °C in 5% CO2 for 0.5 h, the tested compounds (100 μL) in M199 culture medium with 10% FBS was added to the mixture and incubated at 37 °C in 5% CO2 for 9 d. For the treatment group, the M199 culture medium with 10% FBS and inhibitors was changed every three days. For the control group, the M199 culture medium with 10% FBS and 0.5% DMSO was changed every three days. The formed micro-vessels were photographed by inverted microscope at 100× magnification. Experiments were repeated three times. All experiments involving laboratory animals were performed with the approval of the Laboratory Animal Welfare Review Committee of Shandong University of Traditional Chinese Medicine.

In turn, `CC(=O)N1N=C(c2c(Cl)cccc2Cl)CC1c1ccccc1OCC(=O)NO` (stereo not drawn) [Compound 14o, 2-(2-(1-Acetyl-3-(2,6-dichlorophenyl)-4,5-dihydro-1H-pyrazol-5-yl)phenoxy)-N-hydroxyacetamide] displayed a melting point of 174 to 176 °C. For the same compound, in series [1] (ratio of APN IC50 values), the “fold more potent against APN than lead compound 13c” value is “over 9 fold” and the “fold more potent against APN than positive control bestatin” value is given as “over 1419 fold”. Inhibition in [1] was half-maximal at 0.0062 ± 0.0004 µM (IC50). Further, the IC50 with U937 cells came out at 38.3 ± 3.6 µM. Half-maximal inhibition in the series on K562 cells (IC50) required 10.4 ± 1.2 µM. For the same compound, in the series on PLC/PRF/5 cells, the midpoint of inhibition, the IC50, lay at 88.5 ± 7.4 µM. The compound also yielded an IC50 with PC-3 cells of 45.8 ± 4.1 µM. The same compound returned an IC50 in the series on ES-2 cells of 115 ± 9.7 µM. In the series on HepG2 cells, this compound registered an IC50 of 84.2 ± 7.6 µM. Further, in the series with rat thoracic aorta rings (1 μM and 50 μM, 9 d incubation), the “growth of micro-vessels derived from the thoracic aorta rings” value is on record as “could prevent the growth of micro-vessels derived from the thoracic aorta rings in a dose–dependent manner”. For the same compound, in the series on rat thoracic aorta rings (50 μM, 9 d incubation), the “micro-vessels at 50 μM compared with the group treated with 1 μM” value was “obviously reduced micro-vessels”. For the same compound, in the series with rat thoracic aorta rings (same concentration of 50 μM), the “anti-angiogenic activity compared with bestatin” value is reported as “much better than that of bestatin”.

`NC(=O)N1N=C(c2ccccc2I)CC1c1ccc(Br)cc1OCC(=O)NO` (stereo not drawn) [Compound 14t, 5-(4-Bromo-2-(2-(hydroxyamino)-2-oxoethoxy)phenyl)-3-(2-iodophenyl)-4,5-dihydro-1H-pyrazole-1-carboxamide] came in with a melting point of 196 to 198 °C. Also, the half-inhibitory concentration (IC50) in series [1] turned out to be 1.6 ± 0.1 µM.

For the compound `CC(=O)N1N=C(c2ccccc2C)CC1c1ccccc1OCC(=O)NO` (stereo not drawn) [Compound 14k, 2-(2-(1-Acetyl-3-(o-tolyl)-4,5-dihydro-1H-pyrazol-5-yl)phenoxy)-N-hydroxyacetamide], the melting point lay in the range of 170 to 172 °C. Besides, in series [1], half-maximal inhibition (IC50) required 0.21 ± 0.01 µM.

As to `CC(=O)N1N=C(c2ccc(Br)cc2)CC1c1ccccc1OCC(=O)NO` (stereo not drawn) [Compound 14c, 2-(2-(1-Acetyl-3-(4-bromophenyl)-4,5-dihydro-1H-pyrazol-5-yl)phenoxy)-N-hydroxy acetamide], the melting point lay in the range of 202 to 204 °C. Further, inhibition in [1] was half-maximal at 4.4 ± 0.3 µM (IC50).

Compound `CC(=O)N1N=C(c2ccccc2Cl)CC1c1ccccc1OCC(=O)NO` (stereo not drawn) [Compound 14h, 2-(2-(1-Acetyl-3-(2-chlorophenyl)-4,5-dihydro-1H-pyrazol-5-yl)phenoxy)-N-hydroxy acetamide] showed a melting point of 166 to 168 °C. For the same compound, the IC50 in [1] was 0.029 ± 0.002 µM.

Regarding `CC(=O)N1N=C(c2ccccc2I)CC1c1cc(Br)ccc1OCC(=O)NO` (stereo not drawn) [Compound 14u, 2-(2-(1-Acetyl-3-(2-iodophenyl)-4,5-dihydro-1H-pyrazol-5-yl)-4-bromophenoxy)-N-hydroxyacetamide], the melting point fell in the range of 106 to 108 °C. Further, it took 0.37 ± 0.02 µM to reach half-maximal inhibition in series [1] (IC50).

For `CC(C)C[C@H](NC(=O)[C@@H](O)[C@H](N)Cc1ccccc1)C(=O)O` [Bestatin, bestatin, reference compound], the IC50 in the series on U937 cells, in the series on K562 cells, in the series on PLC/PRF/5 cells, with PC-3 cells, with ES-2 cells and with HepG2 cells was over 500 µM each time.

Turning to `CC(=O)N1N=C(c2ccccc2I)CC1c1c(Br)cccc1OCC(=O)NO` (stereo not drawn) [Compound 14w, 2-(2-(1-Acetyl-3-(2-iodophenyl)-4,5-dihydro-1H-pyrazol-5-yl)-3-bromophenoxy)-N-hydroxyacetamide], the melting point lay within 152 to 154 °C. Moreover, the IC50 in series [1] came to 0.024 ± 0.001 µM.

`COc1cccc(OC)c1C1=NN(C(C)=O)C(c2ccccc2OCC(=O)NO)C1` (stereo not drawn) [Compound 14m, 2-(2-(1-Acetyl-3-(2,6-dimethoxyphenyl)-4,5-dihydro-1H-pyrazol-5-yl)phenoxy)-N-hydroxyacetamide] showed a melting point of 178 to 180 °C. The midpoint of inhibition in series [1], the IC50, lay at 0.2 ± 0.01 µM.

For the compound `COc1ccc(C2=NN(C(C)=O)C(c3ccccc3OCC(=O)NO)C2)cc1` (stereo not drawn) [Compound 14f, 2-(2-(1-Acetyl-3-(4-methoxyphenyl)-4,5-dihydro-1H-pyrazol-5-yl)phenoxy)-N-hydroxy acetamide], the melting point fell in the range of 120 to 122 °C. This compound also gave an IC50 in series [1] of 3.8 ± 0.2 µM.

Consider `NC(=O)N1N=C(c2ccccc2OCc2ccc(Br)cc2)CC1c1ccccc1OCC(=O)NO` (stereo not drawn) [Compound 14hh, 3-(2-((4-Bromobenzyl)oxy)phenyl)-5-(2-(2-(hydroxyamino)-2-oxoethoxy)phenyl)-4,5-dihydro-1H-pyrazole-1-carboxamide], for which the melting point was 96 to 98 °C. Inhibition in series [1] was half-maximal at 0.55 ± 0.04 µM (IC50).

`NC(=O)N1N=C(c2ccccc2I)CC1c1cc(Br)ccc1OCC(=O)NO` (stereo not drawn) [Compound 14v, 5-(5-Bromo-2-(2-(hydroxyamino)-2-oxoethoxy)phenyl)-3-(2-iodophenyl)-4,5-dihydro-1H-pyrazole-1-carboxamide] displayed a melting point of 202 to 204 °C. The compound also had an IC50 in series [1] of 0.54 ± 0.04 µM.
